Several values for one entry are separate records, joined by “and”; a condition that tells them apart may be missing. Equal values may be shown once. Read-outs that look alike come from different tables or passages of the source. Where a SMILES comes first, the peptide text is derived from it. Bridges are numbered along the chain shown (N, C = ends). Where no end group is shown, it is not given here. [ ]: non-standard residue; d: D form. The star is where a group is joined. 5FAM = O=C1OC2(c3ccc(O)cc3Oc3cc(O)ccc32)c2ccc(C(=O)*)cc21; R8 = C=CCCCCCC[C@@](C)(N)C(=O)O; S5 = C=CCCC[C@](C)(N)C(=O)O; Dap = NC[C@H](N)C(=O)O; Acryloyl = C=CC(=O)*; BrAc = O=C(CBr)*; ClAc = O=C(CCl)*; βAla = NCCC(=O)O
Experiments:
[1] = biological target: T1, GST-E6 (GST-tagged HPV16 E6 protein) (Human papillomavirus type 16, UniProt P03126); test: Noncompetitive fluorescence polarization (FP) binding assay; set-up: species or system Human Papillomavirus (HPV-16)
T1 construct: host or cells: E. coli BL21
Experimental: An N-terminal carboxyfluorescein was included for FP analysis of binding affinity for both the natural backbone and the stapled peptides.
For noncompetitive FP experiments, varying concentrations of GST-E6 protein (38 μM; 10 point 2-fold serial dilution) were incubated with 30 nM fluorescently labeled peptides in buffer (10 μL total volume; 50 mM Tris, 200 mM NaCl, 1 mM DTT, 0.1% [v/v] Trition X-100) in black 384-well plates. For competitive FP experiments, 100 nM GST-E6 was incubated with 30 nM fluorescently labeled noncovalent peptide and varying concentrations (20 μM; 3-fold serial dilution) of covalent peptide in buffer (20 μL) with a final DMSO content of 0.5% [v/v]. Negative control (polarization reference; 30 nM fluorescent peptide, no protein) and blank reference (buffer alone) were included in triplicate for G-factor calibration. Sample plates were centrifuged (1 min, 500g) and incubated for 30 min at RT. Following incubation, FP at equilibrium was measured on a Tecan M1000 microplate reader (ex = 470 nm, em = 525; gain optimized, 200 flashes, 300 ms settle time, G-factor reference value 30 mP). Measured polarizations were fitted to a sigmoidal dose–response curve using GraphPad Prism software to generate KD values.

bovine α-chymotrypsin = bovine α-chymotrypsin (Bos taurus, UniProt P00766); test: in vitro; settings: 50 μM peptide, 50 nM bovine α-chymotrypsin, pH 7.5, room temp, HPLC
Experimental: Chymotrypsin was chosen due to its substrate selectivity for peptides containing hydrophobic side chains, including leucine, making the LxxLL motif a well-suited substrate for proteolytic cleavage by this protease.[54]
For each time point, a 50 μL aliquot was removed from the reaction mixture and quenched with 40 μL of 0.5% [v/v] trifluoroacetic acid in acetonitrile. Quenched samples were subsequently analyzed by analytical reverse-phase HPLC, and the remaining undigested peptide was quantified by integration of AUC. A plot of percent peptide remaining vs time was fit to a one-phase exponential decay to calculate half-life using GraphPad Prism software.

[2] = Glutathione reactivity assay (HPLC time course)
Experimental: To evaluate the reactivity toward off-target thiols, the acrylamide, bromoacetamide, and chloroacetamide covalent peptides were exposed to glutathione (10 equiv) in an HPLC time course assay over 96 h (Figure 4A). Here, a set of nonfluorescent peptides (2b, 3b, and 4b) were synthesized with an N-terminal tryptophan for quantification through absorbance measurements. Glutathione is the most abundant thiol in human cells,[40] and time point measurements were obtained by quenching reactions with cold acetonitrile containing TFA (0.1%) and 5-carboxyfluorescein as an internal standard.
Covalent peptides (100 μM) were diluted from 10 mM DMSO stock solutions (1% final DMSO content) and incubated in buffer (500 μL total volume; 50 mM Tris, 200 mM NaCl) with glutathione (10 equiv, 1 mM) at 37 °C. To quench the reaction, 10 μL of the reaction mixture was added to 100 μL of cold acetonitrile containing 0.1% TFA [v/v] and 10 μM fluorescein, included as an internal standard. Reaction mixtures were first analyzed by LCMS after 1 h of incubation to assign the glutathione adduct peak by comparison to mixtures quenched immediately following peptide addition. […] The AUC of the reacted covalent peptide was normalized to the AUC of the fluorescein standard. These values were plotted and fitted with nonlinear regression using GraphPad Prism software.

[3] = Off-target reactivity with DTT; assay type: physicochemical; settings: DTT 1 mM
[4] = biological target: T1, GST-E6 (GST-tagged HPV16 E6 protein); test: Competitive fluorescence polarization assay against a fluorescent E6 peptide ligand; assay type: binding, Human Papillomavirus (HPV-16)
Experimental: Next, covalent inhibition was evaluated by using a competitive FP assay. Recombinant GST-E6 was pre-incubated with a fluorescently labeled ligand for 30 min before addition of varying concentrations of the non-fluorescent covalent peptides (Figure 4B). Fluorophore polarization is greatest when the ligand is bound to its target, and consequently, a displacement of the ligand by the covalent peptide results in a decrease in polarization.[41],[42] The formation of a covalent bond between the peptide inhibitor and the C58 residue within E6 is expected to occur more slowly than noncovalent binding, permitting characterization of the affinity of the peptides 2b, 3b, and 4b.[41] […]
For noncompetitive FP experiments, varying concentrations of GST-E6 protein (38 μM; 10 point 2-fold serial dilution) were incubated with 30 nM fluorescently labeled peptides in buffer (10 μL total volume; 50 mM Tris, 200 mM NaCl, 1 mM DTT, 0.1% [v/v] Trition X-100) in black 384-well plates. […] Following incubation, FP at equilibrium was measured on a Tecan M1000 microplate reader (ex = 470 nm, em = 525; gain optimized, 200 flashes, 300 ms settle time, G-factor reference value 30 mP). Measured polarizations were fitted to a sigmoidal dose–response curve using GraphPad Prism software to generate KD values.

[5] = biological target: T2, Glutathione S-transferase (GST) tagged HPV-16 E6 (Human papillomavirus type 16 (HPV-16), UniProt P03126 1-158); test: fluorescence polarisation; settings: both partners purified
T2 construct: Oncoprotein E6 of human papillomavirus type 16; GST fusion printed as 47 kDa; also called GST-E6; E6-GST; source: E. coli BL21, purified (glutathione agarose)

[6] = biological target: T2, Glutathione S-transferase (GST) tagged …; test: fluorescence polarisation; GST-E6 titrated (from 38 μM, 10 point 2-fold serial dilution) against 30 nM fluorescent peptide; 50 mM Tris, 200 mM NaCl, 1 mM DTT, 0.1% Triton X-100; 30 min at RT; sigmoidal dose-response fit; settings: both partners purified

T2 sequence (P03126 whole entry, the tested form may be a part): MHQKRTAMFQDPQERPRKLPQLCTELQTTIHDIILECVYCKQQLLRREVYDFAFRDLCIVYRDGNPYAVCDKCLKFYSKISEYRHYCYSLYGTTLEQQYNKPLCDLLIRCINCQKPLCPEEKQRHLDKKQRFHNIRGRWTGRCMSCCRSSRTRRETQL
T1 sequence (P03126 whole entry): as the sequence (P03126 whole entry, the tested form may be a part) above

Question: For CC(C)C[C@H](NC(=O)[C@H](CC(C)C)NC(=O)[C@H](CCC(=O)O)NC(=O)[C@H](CCC(N)=O)NC(=O)[C@H](CC(C)C)NC(=O)[C@@H](NC(=O)[C@]1(C)CCCC=CCCC[C@](C)(NC(=O)CCNC(=O)c2ccc3c(c2)C(=O)OC32c3ccc(O)cc3Oc3cc(O)ccc32)C(=O)N[C@@H](C)C(=O)N[C@@H](C)C(=O)N[C@@H](CCC(=O)O)C(=O)N1)[C@@H](C)O)C(=O)NCC(N)=O [compound 5] ({5FAM-βAla}-[S5]AAE[S5]TLQELLG-NH2; staple 1-5), which Kd [1] is on record?
Answer: < 1000 nM

Question: What does the source list for CC(C)C[C@H](NC(=O)[C@H](CC(C)C)NC(=O)[C@H](CCC(=O)O)NC(=O)[C@]1(C)CCCC=CCCCCCC[C@@](C)(NC(=O)CCNC(=O)c2ccc3c(c2)C(=O)OC32c3ccc(O)cc3Oc3cc(O)ccc32)C(=O)N[C@@H](C)C(=O)N[C@@H](C)C(=O)N[C@@H](CCC(=O)O)C(=O)N[C@@H](CC(C)C)C(=O)N[C@@H]([C@@H](C)O)C(=O)N[C@@H](CC(C)C)C(=O)N1)C(=O)NCC(N)=O [compound 9] ({5FAM-βAla}-[R8]AAELTL[S5]ELLG-NH2; staple 1-8)?
Answer: Kd [1]: 430 nM and < 1000 nM; degradation by chymotrypsin within 4 h (bovine α-chymotrypsin; 4 h): no degradation; degradation by chymotrypsin on continued incubation up to 16 h (bovine α-chymotrypsin; up to 16 h): no significant degradation

Question: With CC(=O)N[C@@H](Cc1c[nH]c2ccccc12)C(=O)NCCC(=O)N[C@@H](C)C(=O)N[C@@H](C)C(=O)N[C@@H](C)C(=O)N[C@@H](CCC(=O)O)C(=O)N[C@@H](CC(C)C)C(=O)N[C@H](C(=O)N[C@@H](CC(C)C)C(=O)N[C@@H](CCC(N)=O)C(=O)N[C@@H](CCC(=O)O)C(=O)N[C@@H](CC(C)C)C(=O)N[C@@H](CC(C)C)C(=O)N[C@@H](CNC(=O)CBr)C(N)=O)[C@@H](C)O [3b] (Ac-W[βAla]AAAELTLQELL[Dap](BrAc)-NH2) as the molecule, how does the “t1/2 of reaction with glutathione” value ([2]; 100 μM peptide, glutathione 10 equiv (1 mM), 50 mM Tris, 200 mM NaCl, 1% DMSO, 37 °C, HPLC 280 nm, GSH adduct peak area, n = 3) read?
Answer: 0.142 h

Question: What about the “half-life of off-target reaction with DTT” value [3] of the same molecule?
Answer: 2.1 min

Question: For CC(C)C[C@H](NC(=O)[C@H](CC(C)C)NC(=O)[C@]1(C)CCCC=CCCCCCC[C@@](C)(NC(=O)[C@H](C)NC(=O)CCNC(=O)c2ccc3c(c2)C(=O)OC32c3ccc(O)cc3Oc3cc(O)ccc32)C(=O)N[C@@H](C)C(=O)N[C@@H](CCC(=O)O)C(=O)N[C@@H](CC(C)C)C(=O)N[C@@H]([C@@H](C)O)C(=O)N[C@@H](CC(C)C)C(=O)N[C@@H](CCC(N)=O)C(=O)N1)C(=O)NCC(N)=O [compound 10] ({5FAM-βAla}-A[R8]AELTLQ[S5]LLG-NH2; staple 2-9), which Kd [1] is on record?
Answer: > 38000 nM

Question: What does the source list for CC(=O)N[C@@H](Cc1c[nH]c2ccccc12)C(=O)NCCC(=O)N[C@@H](C)C(=O)N[C@@H](C)C(=O)N[C@@H](C)C(=O)N[C@@H](CCC(=O)O)C(=O)N[C@@H](CC(C)C)C(=O)N[C@H](C(=O)N[C@@H](CC(C)C)C(=O)N[C@@H](CCC(N)=O)C(=O)N[C@@H](CCC(=O)O)C(=O)N[C@@H](CC(C)C)C(=O)N[C@@H](CC(C)C)C(=O)N[C@@H](CNC(=O)CCl)C(N)=O)[C@@H](C)O [4b] (Ac-W[βAla]AAAELTLQELL[Dap](ClAc)-NH2)?
Answer: t1/2 of reaction with glutathione ([2]; 100 μM peptide, glutathione 10 equiv (1 mM), 50 mM Tris, 200 mM NaCl, 1% DMSO, 37 °C, up to 96 h, HPLC 280 nm, GSH adduct peak area, n = 3): 7.0 h; EC50 [4]: 40 nM

Question: Which Kd [1] does the source give for CC(C)C[C@H](NC(=O)[C@H](CC(C)C)NC(=O)[C@]1(C)CCCC=CCCC[C@](C)(NC(=O)[C@H](CCC(=O)O)NC(=O)[C@H](C)NC(=O)[C@H](C)NC(=O)[C@H](C)NC(=O)CCNC(=O)c2ccc3c(c2)C(=O)OC32c3ccc(O)cc3Oc3cc(O)ccc32)C(=O)N[C@@H]([C@@H](C)O)C(=O)N[C@@H](CC(C)C)C(=O)N[C@@H](CCC(N)=O)C(=O)N1)C(=O)NCC(N)=O [compound 7] ({5FAM-βAla}-AAAE[S5]TLQ[S5]LLG-NH2; staple 5-9) here?
Answer: 3000 nM

Question: For C=CC(=O)NC[C@H](NC(=O)[C@H](CC(C)C)NC(=O)[C@H](CC(C)C)NC(=O)[C@H](CCC(=O)O)NC(=O)[C@H](CCC(N)=O)NC(=O)[C@H](CC(C)C)NC(=O)[C@@H](NC(=O)[C@H](CC(C)C)NC(=O)[C@H](CCC(=O)O)NC(=O)[C@H](C)NC(=O)[C@H](C)NC(=O)[C@H](C)NC(=O)CCNC(=O)[C@H](Cc1c[nH]c2ccccc12)NC(C)=O)[C@@H](C)O)C(N)=O [2b] (Ac-W[βAla]AAAELTLQELL[Dap](Acryloyl)-NH2), which “t1/2 of reaction with glutathione” value [2] is on record?
Answer: 10.3 h

Question: For AAAELTLQELL-{Dap(acrylamide)} (not fully specified (N-terminus)) [nonfluorescent acrylamide covalent peptide 2b], which EC50 [5] is on record?
Answer: 2070 nM

Question: With AAAELTLQELL-{Dap(bromoacetamide)} (not fully specified (N-terminus)) [nonfluorescent bromoacetamide covalent peptide 3b] as the molecule, how does the EC50 [5] read?
Answer: 2410 nM

B1: (i, i + 4) stapled peptide 8 (peptide)
chain: {5FAM-βAla}-AAAELTL[S5]ELL[S5]-NH2
modifications: staple 8-12
SMILES: CC(C)C[C@@H]1NC(=O)[C@H](CCC(=O)O)NC(=O)[C@@](C)(NC(=O)[C@H](CC(C)C)NC(=O)[C@@H](NC(=O)[C@H](CC(C)C)NC(=O)[C@H](CCC(=O)O)NC(=O)[C@H](C)NC(=O)[C@H](C)NC(=O)[C@H](C)NC(=O)CCNC(=O)c2ccc3c(c2)C(=O)OC32c3ccc(O)cc3Oc3cc(O)ccc32)[C@@H](C)O)CCCC=CCCC[C@@](C)(C(N)=O)NC(=O)[C@H](CC(C)C)NC1=O
Question: For B1, which Kd [6] is on record?
Answer: 8000 nM

Question: For {5FAM-βAla}-[R8]AAELTL[S5]ELLG (staple 1-8) [(i, i + 7) stapled peptide 9], which Kd [6] is on record?
Answer: 431 nM

Question: For {5FAM-βAla}-[S5]AAE[S5]TLQELLG (staple 1-5) [(i, i + 4) stapled peptide 5], which Kd [6] is on record?
Answer: 590 nM

B2: (i, i + 4) stapled peptide 7 (peptide)
chain: {5FAM-βAla}-AAAE[S5]TLQ[S5]LLG-NH2
modifications: staple 5-9
SMILES: CC(C)C[C@H](NC(=O)[C@H](CC(C)C)NC(=O)[C@]1(C)CCCC=CCCC[C@](C)(NC(=O)[C@H](CCC(=O)O)NC(=O)[C@H](C)NC(=O)[C@H](C)NC(=O)[C@H](C)NC(=O)CCNC(=O)c2ccc3c(c2)C(=O)OC32c3ccc(O)cc3Oc3cc(O)ccc32)C(=O)N[C@@H]([C@@H](C)O)C(=O)N[C@@H](CC(C)C)C(=O)N[C@@H](CCC(N)=O)C(=O)N1)C(=O)NCC(N)=O
Question: Which Kd [6] does the source give for B2 here?
Answer: 3200 nM

Question: With {5FAM-βAla}-AAAE[R8]TLQELL[S5] (staple 5-12) [(i, i + 7) stapled peptide 11] as the molecule, how does the Kd [6] read?
Answer: 7000 nM
